Results published in paper PMC4919375, “Improved in vivo antitumor effect of a daunorubicin - GnRH-III bioconjugate modified by apoptosis inducing agent butyric acid on colorectal carcinoma bearing mice” (Investigational New Drugs, 2016).

Key:
[1] = tested on: HT-29 orthotopic primary human colon carcinoma; experiment: Macroscopic metastases on different organs; format: in vivo, mouse; settings: orthotopic HT-29 in NSG mice, day 50; 7 animals in each group
Method: (§1) Based on the results of the chronic toxicity study, we used only 1 mg (1.773 μmol)/kg free Dau, weekly, in the Dau treated group. Thirteen treatments were applied from the day 5 after tumor transplantation until the day 50 in the groups treated with the bioconjugates (every Monday and Thursday). The treatments were performed by i.v. (intravenous) or i.p. administration; the compounds were dissolved in distilled water (0.1 mL/10 g body weight).
(§2) The bioconjugates were administered at different doses during the treatment period. In the first five treatments, they were i.v. administered, at a dose of 28.435 μmol/kg body weight (15 mg Dau content in the bioconjugate/kg). From the 6th to the 13th treatment, they were i.p. administered at a dose of 14.217 μmol/kg body weight (7.5 mg Dau content in the bioconjugate/kg). The first five doses represented the initial round of treatments, which was followed by the maintenance therapy. In the maintenance treatments, 5 % glucose solution instead of distilled water was used, in order to minimize the harmful effects of tfa salts that were present in the lyophilized bioconjugates.
(§3) The mice from all groups were sacrificed by deadly overslept cocktail (0.3 mL/mouse concentrated nembutal (pentobarbitone) solution), on day 50 after tumor transplantation.

[2] = tested on: HT-29 orthotopic primary human colon carcinoma; experiment: Tumor growth inhibition, orthotopic HT-29 human colon carcinoma in NSG mice; format: in vivo, mouse; settings: orthotopic HT-29 in NSG mice, Dau 1 mg/kg i.v. weekly x7, 7 mice/group; for Tumor growth inhibition compared to the control group: tumor weight on day 50, bioconjugates 15 mg Dau content/kg i.v. x5 then 7.5 mg Dau content/kg i.p. x8, twice a week; for Tumor weight on day 50 after tumor transplantation: relative to control, bioconjugates 15 mg Dau content/kg i.v. x5 then 7.5 mg/kg i.p. x8, mean
Description: Female NSG mice, weighing 24–28 g, were used in this study. The xenografts were established by subcutaneous injection of ca. 10^6 HT-29 (GnRH receptor positive) human colon carcinoma cells, which were from ATCC and cultured according to their standards. The mice with palpable tumors were killed by cervical-dislocation, disinfected with iodine, and the subcutaneous tumor was dissected out aseptically. Tumor pieces of 2–3 mm^3 were transplanted under aseptic conditions, orthotopically, into narcotized NSG mice.
For direct implantation, mice were anesthetized (narcotic mixture: tiletamine, zolazepam, xylazine, butorphanol) and the abdomen was sterilized with iodine and alcohol swabs. A small midline incision (0.5 cm) was made and the colorectal part of the intestine was exteriorized. Serosa of the site where the tumor pieces were to be implanted was removed. A piece of 2 mm^3 HT-29 human colon tumor was implanted on the top of the animal intestine; an 8/0 surgical (polypropylene) suture was used to suture it on the wall of the intestine. The intestine was returned to the abdominal cavity and the abdominal wall was closed with 4/0 surgical (polyglycolic acid) sutures. The wound was sterilized with iodine and alcohol swab again and the animals were kept in a sterile environment. For pain release and rehydration, mice were treated s.c. with 100 mg/kg algopyrine in Ringer solution containing 5 % glucose. On the next day, no signs of pain and stress of mice were observed.
as §1
In this experiment, 7 mice/group were used for the treatment with the bioconjugates (GnRH-III[^4Lys(Ac),^8Lys(Dau = Aoa)] and GnRH-III[^4Lys(Bu),^8Lys(Dau = Aoa)]) as well as in the control group.
as §2, with “In the maintenance treatments, 5 % glucose solution instead of distilled water was used, in order to minimize the harmful effects of tfa salts that were present in the lyophilized bioconjugates.” left out
After that, the tumors were removed and the tumor weight was determined in all cases. […]

[3] = tested on: liver; experiment: Macroscopic liver toxicity (liver weight); format: in vivo, mouse; settings: Dau 1 mg/kg i.v. weekly x7; for Liver weight on day 50 after tumor transplantation: relative to control, HT-29 bearing NSG mice, bioconjugates 15 then 7.5 mg Dau content/kg twice a week, mean
Method: as §1, §2, §3

[4] = tested on: HT-29 orthotopic primary human colon carcinoma; experiment: Proliferative index in orthotopic HT-29 tumor tissues (BrdU); format: in vivo, mouse; settings: orthotopic HT-29 in NSG mice, BrdU positive cells; relative to control; mean
Method: (§4) Before ending the experiment (30 min prior to sacrificing the mice), the tumor bearing animals were injected i.p. with 5-bromo-2 V-deoxyuridine (BrdU, 200 mg/kg; Sigma-Aldrich Kft, Budapest, Hungary). After 6 h, 5–7 μm thick tissue sections were excised from the newly frozen tumors and used for the detection of BrdU positive cells using an anti-BrdU monoclonal antibody (Becton Dickinson Hungary Kft., Budapest, Hungary), according to the manufacturer’s protocol. Positive cells were visualized with TRITC-conjugated anti-mouse IgG (1:100, Sigma). Endothelial cells were distinguished from tumor cells by treating the samples with rat anti-mouse CD31 antibody and labelled with biotinylated anti-rat IgG and streptavidin-FITC (Vector Laboratories, Burlingame, CA). The nuclei were stained with the Hoechst 33,342 dye (Molecular Probes, Eugene, OR). The number of labelled HT-29 tumor cells and the quantity of CD31-positive samples were determined in two different tumors by microscopic analysis of 6 independent regions. The vascularization extent of primary tumors was determined by microscopic analysis of two different living tumors, where four independent areas of living cells were counted and the percentage of separated endothelial cells covering a 10× magnification field of vision was calculated.

[5] = butyrated version compared with acetylated; previous in vitro studies; cited from earlier work
Description: In our research, GnRH-III peptide was mainly employed as a targeting moiety, due to its low endocrine effect in mammals and significant antiproliferative effect on different types of cancer cells. […] However, the efficacy of the bioconjugates was highly dependent on the tumor type and whether this was subcutaneously or orthotopically developed in mice. Orthotopically developed tumors represent the ...

[6] = tested on: HT-29 human colon cancer cells; settings: cited from earlier work
Description: (§5) In our research, lamprey GnRH-III (Glp-His-Trp-Ser-His-Asp-Trp-Lys-Pro-Gly-NH2, where Glp is pyroglutamic acid) has been employed as a key molecule for drug targeting. […] Thus, hormonal side effects in case of targeted tumor therapy using GnRH-III as a homing device are expected to be insignificant, this feature being important in the treatment of hormone independent tumors like colorectal cancer. Considering that lysine in position 8 of GnRH-III can be us ...

[7] = tested on: GnRH receptor; settings: butyrated compared with acetylated bioconjugate; cited from earlier work
Description: as §5

[8] = tested on: NSG healthy mice; experiment: Chronic toxicity of daunorubicin on NSG healthy mice; format: in vivo, mouse
Method: NSG adult male mice, weighing 26–34 g, were used. Daunorubicin was dissolved in distilled water at a concentration that allowed the dose to be given in a volume of 0.1 mL/10 g body weight. In this experiment, each group consisted of 3 mice, which were treated by intraperitoneal (i.p.) administration on days 1, 4, 8, 12 and 16. The toxicity was assessed on the basis of lifespan and body weight and the survival time was followed for 20 days.

[9] = tested on: heart; experiment: Liver- and cardiotoxicity, histological examination and side effects; format: in vivo, mouse; settings: at the applied doses; liver weight, hematoxylin and eosin histology of heart, light microscopy
Description: The removed and fixed tissue samples were dehydrated in a graded series of ethanol, infiltrated with xylene and embedded into paraffin. Histological sections were stained with Harris hematoxylin and eosin (10:1, v/v, 1 % solutions) in acidified 70 % ethanol and mounted. The histological samples were examined under a light microscope (Olympus CH30, Olympus Optical, Japan).

[10] = tested on: HT-29 orthotopic primary human colon carcinoma; experiment: Vascularization in orthotopic HT-29 tumor tissues (CD31); format: in vivo, mouse; settings: orthotopic HT-29 in NSG mice, CD31-positive endothelial cells; control 100 %; mean
Method: as §4

## GnRH-III[^4Lys(Bu),^8Lys(Dau = Aoa)]
[1]
  Metastasis on diaphragm, animals affected/animals in group: 3/7
  Metastasis on diaphragm, percent of animals: 42.9%
  Metastasis on liver, animals affected/animals in group: 7/7
  Metastasis on liver, percent of animals: 100%
  Metastasis on lung, animals affected/animals in group: 7/7
  Metastasis on lung, percent of animals: 100%
  Metastasis on lymph node, animals affected/animals in group: 3/7
  Metastasis on lymph node, percent of animals: 42.9%
  Metastasis on pancreas, animals affected/animals in group: 0/7
  Metastasis on pancreas, percent of animals: 0%
  Metastasis on spleen, animals affected/animals in group: 1/7
  Metastasis on spleen, percent of animals: 14.3%
[2]
  Tumor growth inhibition compared to the control group: ~ 40%
  Tumor weight on day 50 after tumor transplantation: 60.6%
[3]
  Liver weight on day 50 after tumor transplantation: 105.0%
[4]
  Proliferation index (%): 84.5%
[5]
  Cellular uptake: higher receptor binding affinity and cellular uptake
[6]
  IC50: 2200 ± 600 nM
[7]
  Binding to the GnRH receptor (affinity): higher affinity

## COc1cccc2c1C(=O)c1c(O)c3c(c(O)c1C2=O)C[C@@](O)(C(C)=O)C[C@@H]3O[C@H]1C[C@H](N)[C@H](O)[C@H](C)O1 [Daunorubicin]
[1]
  Metastasis on diaphragm, animals affected/animals in group: 3/7
  Metastasis on diaphragm, percent of animals: 42.9%
  Metastasis on liver, animals affected/animals in group: 7/7
  Metastasis on liver, percent of animals: 100%
  Metastasis on lung, animals affected/animals in group: 7/7
  Metastasis on lung, percent of animals: 100%
  Metastasis on lymph node, animals affected/animals in group: 4/7
  Metastasis on pancreas, animals affected/animals in group: 0/7
  Metastasis on pancreas, percent of animals: 0%
  Metastasis on spleen, animals affected/animals in group: 0/7
  Metastasis on spleen, percent of animals: 0%
[2]
  Tumor growth inhibition compared to the control group: about 30%
  Tumor weight on day 50 after tumor transplantation: 70.3%
[3]
  Liver weight on day 50 after tumor transplantation: 89.1%
[3]; vs control, day 50, not significant
  Decrease of average liver weight: about 11%
[8]; 1 mg/kg i.p. on days 1, 4, 8, 12 and 16, NSG healthy male mice, 3 mice/group, experiment stopped on day 20
  Day on which the first animal died: 20 days
[8]; 2 mg/kg i.p. on days 1, 4, 8, 12 and 16, died on day 13 after the fourth treatment, NSG healthy male mice, 3 mice/group
  Mice died: 2 of 3
[8]; 1 or 2 mg/kg i.p. on days 1, 4, 8, 12 and 16, both doses, NSG healthy male mice
  Body weight change: significant loss of weight
[8]; decreased from ~30 g during 20 days, i.p. on days 1, 4, 8, 12 and 16, NSG healthy male mice
  Body weight of the animals at the end: ~ 20 g
[8]; immunodeficient tumor bearing mice
  Maximum tolerated dose: 1–2 mg/kg/week
[4]
  Proliferation index (%): 98.6%
[9]
  Liver- or cardiotoxicity: neither the bioconjugates nor the free daunorubicin showed any liver- or cardiotoxicity
[10]
  Vascularization (number of blood vessels), to the control: 112%
